Columns and labels:
[1] = target: T1, neuronal nitric oxide synthetase (Rattus norvegicus, UniProt P29476); experiment: Screen A: screen for neuronal nitric oxide synthetase inhibitory activity; type: biochemical; details: for IC50: neuronal isoform, rat hippocampus or cerebellum supernatant, read-out: IC50 (concentration of drug substance which gives 50% enzyme inhibition in the assay)
T1 construct: Enzyme was isolated from rat hippocampus or cerebellum; from tissue; host or cells: cerebellum or hippocampus of male Sprague-Dawley rat, 20,000 g supernatant
T1 sequence (P29476 whole entry, canonical isoform): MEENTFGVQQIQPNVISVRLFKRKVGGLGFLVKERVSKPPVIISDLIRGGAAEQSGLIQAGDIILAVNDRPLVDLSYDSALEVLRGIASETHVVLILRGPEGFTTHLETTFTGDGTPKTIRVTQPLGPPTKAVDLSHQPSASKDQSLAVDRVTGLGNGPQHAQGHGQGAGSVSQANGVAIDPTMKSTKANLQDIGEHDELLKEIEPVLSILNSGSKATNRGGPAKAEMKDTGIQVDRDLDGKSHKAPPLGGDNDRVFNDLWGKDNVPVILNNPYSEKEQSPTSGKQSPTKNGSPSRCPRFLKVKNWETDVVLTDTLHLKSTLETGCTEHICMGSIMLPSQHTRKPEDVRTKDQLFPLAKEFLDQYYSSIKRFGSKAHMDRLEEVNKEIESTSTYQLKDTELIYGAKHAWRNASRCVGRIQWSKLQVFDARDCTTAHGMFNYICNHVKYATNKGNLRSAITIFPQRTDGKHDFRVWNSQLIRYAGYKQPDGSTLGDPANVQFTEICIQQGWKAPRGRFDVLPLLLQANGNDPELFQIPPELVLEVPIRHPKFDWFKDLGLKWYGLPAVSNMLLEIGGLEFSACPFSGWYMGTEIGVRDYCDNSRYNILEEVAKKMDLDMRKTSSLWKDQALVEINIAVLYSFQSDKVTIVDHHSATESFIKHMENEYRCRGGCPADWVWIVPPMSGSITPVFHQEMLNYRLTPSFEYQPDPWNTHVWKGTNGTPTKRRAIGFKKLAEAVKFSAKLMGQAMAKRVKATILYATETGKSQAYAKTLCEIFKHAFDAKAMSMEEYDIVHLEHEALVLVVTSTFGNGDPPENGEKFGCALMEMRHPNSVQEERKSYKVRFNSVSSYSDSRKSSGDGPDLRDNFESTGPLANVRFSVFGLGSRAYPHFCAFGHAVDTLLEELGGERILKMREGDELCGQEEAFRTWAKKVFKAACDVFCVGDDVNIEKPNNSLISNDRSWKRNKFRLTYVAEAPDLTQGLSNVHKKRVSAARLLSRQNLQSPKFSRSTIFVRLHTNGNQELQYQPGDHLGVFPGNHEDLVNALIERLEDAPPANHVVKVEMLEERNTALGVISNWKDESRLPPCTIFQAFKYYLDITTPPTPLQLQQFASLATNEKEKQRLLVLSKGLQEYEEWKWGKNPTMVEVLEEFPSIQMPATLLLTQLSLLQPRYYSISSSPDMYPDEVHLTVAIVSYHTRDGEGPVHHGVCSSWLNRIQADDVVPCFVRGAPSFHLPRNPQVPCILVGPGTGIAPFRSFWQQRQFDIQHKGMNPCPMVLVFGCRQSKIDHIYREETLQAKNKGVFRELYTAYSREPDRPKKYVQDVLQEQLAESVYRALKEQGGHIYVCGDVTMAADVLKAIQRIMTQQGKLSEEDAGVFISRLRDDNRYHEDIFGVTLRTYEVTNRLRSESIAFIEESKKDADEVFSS

[2] = target: T2, endothelial nitric oxide synthetase (Homo sapiens, UniProt P29474); experiment: Screen C: screen for endothelial nitric oxide synthetase inhibitory activity; type: biochemical
T2 construct: Enzyme may be isolated from human umbilical vein endothelial cells (HUVECs); host or cells: human umbilical vein endothelial cells (HUVECs)
T2 sequence (P29474 2-1203): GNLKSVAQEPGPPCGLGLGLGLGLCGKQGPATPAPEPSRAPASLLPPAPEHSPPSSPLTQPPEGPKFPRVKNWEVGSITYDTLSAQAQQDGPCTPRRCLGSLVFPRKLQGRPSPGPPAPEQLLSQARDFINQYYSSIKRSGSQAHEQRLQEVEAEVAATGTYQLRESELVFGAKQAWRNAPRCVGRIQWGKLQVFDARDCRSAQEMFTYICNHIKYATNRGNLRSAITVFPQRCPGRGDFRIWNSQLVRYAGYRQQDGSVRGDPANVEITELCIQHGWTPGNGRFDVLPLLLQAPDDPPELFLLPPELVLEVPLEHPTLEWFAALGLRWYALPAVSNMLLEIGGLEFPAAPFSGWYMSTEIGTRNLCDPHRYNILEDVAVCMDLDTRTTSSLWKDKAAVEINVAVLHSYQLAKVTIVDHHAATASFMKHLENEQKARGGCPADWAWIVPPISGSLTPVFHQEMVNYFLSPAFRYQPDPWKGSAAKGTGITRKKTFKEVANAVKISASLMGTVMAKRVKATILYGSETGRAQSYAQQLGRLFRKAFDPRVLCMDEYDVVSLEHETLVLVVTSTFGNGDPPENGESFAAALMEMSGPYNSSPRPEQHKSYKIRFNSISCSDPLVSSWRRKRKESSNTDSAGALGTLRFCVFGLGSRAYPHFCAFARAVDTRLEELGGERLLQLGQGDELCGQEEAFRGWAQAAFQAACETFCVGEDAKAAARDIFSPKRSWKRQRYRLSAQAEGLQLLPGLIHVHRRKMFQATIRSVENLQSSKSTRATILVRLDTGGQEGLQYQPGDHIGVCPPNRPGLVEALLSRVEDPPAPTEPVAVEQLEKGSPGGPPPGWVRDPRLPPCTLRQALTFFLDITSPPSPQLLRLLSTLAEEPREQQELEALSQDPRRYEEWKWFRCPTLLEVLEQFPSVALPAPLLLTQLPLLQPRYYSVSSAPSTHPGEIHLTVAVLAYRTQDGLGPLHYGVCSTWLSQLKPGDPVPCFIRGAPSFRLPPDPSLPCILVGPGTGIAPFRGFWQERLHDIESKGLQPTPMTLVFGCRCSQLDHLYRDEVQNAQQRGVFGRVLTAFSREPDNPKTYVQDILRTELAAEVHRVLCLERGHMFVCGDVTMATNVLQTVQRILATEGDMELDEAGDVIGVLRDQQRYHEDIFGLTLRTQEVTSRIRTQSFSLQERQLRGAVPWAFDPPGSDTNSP

[3] = target: T3, macrophage nitric oxide synthetase (Mus musculus, UniProt P29477); experiment: Screen B: screen for macrophage nitric oxide synthetase activity; type: biochemical, murine; details: macrophage isoform (Screen B) versus neuronal isoform (Screen A)
T3 construct: Nitric oxide synthetase is produced by cells in response to interferon-γ (IFNγ) and lipopolysaccharide (LPS); endogenous in cells; host or cells: murine macrophage cell line J774A-1, induced with IFN-gamma and LPS (cell line from Imperial Cancer Research Fund)
From the text: The enzyme nitric oxide synthetase has a number of isoforms and compounds of formula I, or pharmaceutically acceptable salts thereof, may be screened for nitric oxide synthetase inhibitory activity by procedures based on those of Bredt and Snyder in Proc. Natl. Acad. Sci (1990) 87, 682-685 and Forstermann et. al. (1992) Eur. J. Pharm. 225,161-165 as follows. Nitric axide synthetase converts ^3 H-L-arginine to ^3 H-L-citrulline which can be separated by cation exchange chromatography and quantified by liquid scintillation counting.
(B) Screen for macrophage nitric oxide synthetase activity
Enzyme is prepared; after induction, from the cultured murine macrophage cell line J774A-1 (obtained from laboratories of the Imperial Cancer Research Fund). J774A-1 cells are cultured in Dulbecco's Modified Eagles Medium (DMEM) supplemented with 10% foetal bovine serum, 4 mM L-glutamine and antibiotics (100 units/ml penicillin G, 100 μg/ml streptomycin & 0.25 μg/m amphotericin B). Cells are routinely grown in […] flasks containing 35 ml medium kept at 37° C. and in a humidified atmosphere containing 5% CO2.
Nitric oxide synthetase is produced by cells in response to interferon-γ (IFNγ) and lipopolysaccharide (LPS). […]
Labelled L-citrulline is separated from labelled L-arginine using Dowex AG-50W. […] After allowing the samples to dry the L-citrulline is quantified by scintillation counting. […]

Row | IC50 [1] [µM] | Structure (SMILES) | also measured
1 | < 10 | N=C(Nc1ccc(CCCC(=O)N2CCOCC2)cc1)c1cccs1 [27(a), N-(4-(3-((4-morpholinyl)carbonyl)propyl)phenyl)-2-thiophenecarboximidamide] | –
2 | < 10 | NC(=Nc1ccc(CCNCc2ccccc2)cc1)c1cccs1 [Example 1, N-(4-(2-((phenylmethyl)amino)ethyl)phenyl)-2-thiophenecarboximidamide] | IC50 in Screen C relative to IC50 in Screen A ([2]; endothelial isoform (Screen C) versus neuronal isoform (Screen A)): more than 10 times; IC50 in Screen B relative to IC50 in Screen A [3]: more than 10 times
3 | < 10 | N=C(Nc1ccc(C(=O)Nc2ccccc2)cc1)c1cccs1 [Example 27(b), N-(4-((phenylamino)carbonyl)phenyl)-2-thiophenecarboximidamide] | –
4 | < 100 | NC(=Nc1ccc(NC(=O)N(c2ccccc2)c2ccccc2)cc1)c1cccs1 [Example 48, N-[4-(((Diphenylamino)carbonyl)amino)phenyl]-2-thiophenecarboxamidine] | –
5 | – | CN(CCc1ccc(NC(=N)C(F)(F)F)cc1)Cc1ccccc1 [Example 72, N-(4-(2-((phenylmethyl)(methyl)amino)ethyl)phenyl)trifluoroacetimidamide] | inhibition at 10 µM ([1]; at 10 μM): 17%
6 | – | NC(=N[N+](=O)[O-])NCCC[C@H](N)C(=O)O [N-nitro-L-arginine, reference compound] | inhibition at 1 µM ([2]; Screen C, at a concentration of 1 μM, HUVEC enzyme, read-out: inhibition of nitric oxide synthetase (reference standard)): 70 to 90%

— US5807885A, “Amidine derivatives with nitric oxide synthetase activities” (priority 1996, dated 1998)
